{
  "source": "patent US20070088012A1",
  "about": "“Method of treating or preventing type-2 diabetes” (priority 2005, published 2007)",
  "origin": "cited, not measured here",
  "data": [
    {"smiles": "C[C@]12CC[C@H]3[C@@H](CCC4=CC(=O)CC[C@@]43C)[C@@H]1CC[C@@H]2O", "note": "[Testosterone, testosterone]", "values": [
      {"measurement": "bound to protein in the blood", "setting": "circulating testosterone", "value": 98, "unit": "%"},
      {"measurement": "share bound weakly to albumin", "setting": "in men", "value": 60, "unit": "%"},
      {"measurement": "share of the binding to sex hormone binding globulin (SHBG)", "setting": "in men", "value": "approximately 40%"},
      {"measurement": "Metabolic Clearance Rate of Daily Testosterone", "setting": "men", "value": "^aMetabolic Clearance Rate of Daily Testosterone = 600 L/day"},
      {"measurement": "half-life of testosterone", "setting": "reported in the literature", "value": "10 to 100", "unit": "min"}
    ]}
  ]
}
